Test results as given in patent publication US20240166652A1, “MODULATORS OF THE INTEGRATED STRESS PATHWAY” (Calico Life Sciences LLC, priority 2017, published 2024).

Each molecule was assayed on ATF4 luciferase reporter in HEK293T cells (assay: ATF4-Luc assay (ATF4 luciferase reporter, tunicamycin-treated HEK293T cells)). Conditions: Homo sapiens, HEK-293T; HEK293T cells carrying the ATF4 luciferase reporter, 1 μg/mL tunicamycin, 7 hours.
Type: cell-based, human
`O=C(COc1ccc(C(F)(F)F)nc1)NC12CCC(NC(=O)COc3ccc(C(F)(F)F)nc3)(CC1)[C@@H](O)C2` [Compound 541, N,N′-[(2S)-2-hydroxybicyclo[2.2.2]octane-1,4-diyl]bis(2-{[6-(trifluoromethyl)pyridin-3-yl]oxy}acetamide)] showed an EC50 of 0.01 to 0.05 µM.
For `O=C(COc1ccc2c(c1)OC(F)(F)O2)NC12CCC(NC(=O)COc3ccc4c(c3)OC(F)(F)O4)(CC1)[C@@H](O)C2` [Compound 542, N,N′-[(2S)-2-hydroxybicyclo[2.2.2]octane-1,4-diyl]bis{2-[(2,2-difluoro-2H-1,3-benzodioxol-5-yl)oxy]acetamide}], the EC50 was under 0.01 µM.
In the case of `O=C(CCCc1cccc(Cl)c1)NC12CC(NC(=O)COc3ccc(Cl)c(F)c3)(C1)C2` [Compound 543, N-{3-[2-(4-chloro-3-fluorophenoxy)acetamido]bicyclo[1.1.1]pentan-1-yl}-4-(3-chlorophenyl)butanamide], the EC50 is reported as 0.05 to 0.25 µM.
`O=C(COc1ccc(F)c(Cl)c1)NC12CCC(NC(=O)COc3ccc(Cl)c(Cl)c3)(CC1)[C@@H](O)C2` [Compound 544, 2-(3-chloro-4-fluorophenoxy)-N-{(3S)-4-[2-(3,4-dichlorophenoxy)acetamido]-3-hydroxybicyclo[2.2.2]octan-1-yl}acetamide] gave an EC50 of under 0.01 µM.
In the case of `O=C(COc1ccc(F)c(Cl)c1)NC12CCC(NC(=O)COc3ccc(Cl)c(F)c3)(CC1)[C@@H](O)C2` [Compound 545, 2-(4-chloro-3-fluorophenoxy)-N-{(2S)-4-[2-(3-chloro-4-fluorophenoxy)acetamido]-2-hydroxybicyclo[2.2.2]octan-1-yl}acetamide], the EC50 is reported as under 0.01 µM.
`O=C(COc1ccc(Cl)cc1)NC12CC(NC(=O)COc3ccc(F)c(Cl)c3)(C1)C2` [Compound 546, 2-(3-chloro-4-fluorophenoxy)-N-{3-[2-(4-chlorophenoxy)acetamido]bicyclo[1.1.1]pentan-1-yl}acetamide] gave an EC50 of under 0.01 µM.
`O=C(COc1ccc(F)c(Cl)c1)NC12CC(NC(=O)COc3ccc(F)c(Cl)c3)(C1)C2` [Compound 547, N,N′-(bicyclo[1.1.1]pentane-1,3-diyl)bis[2-(3-chloro-4-fluorophenoxy)acetamide]] showed an EC50 of under 0.01 µM.
With `O=C(COc1ccc(Cl)c(F)c1)NC12CCC(NC(=O)COc3ccc(Cl)c(F)c3)(CC1)C(O)C2O` (centres unmarked) [Compound 548, N,N′-(2,3-dihydroxybicyclo[2.2.2]octane-1,4-diyl)bis[2-(4-chloro-3-fluorophenoxy)acetamide]] the EC50 was under 0.01 µM.
In the case of `O=C(COc1cccc(F)c1)NC12CCC(NC(=O)COc3cccc(F)c3)(CC1)[C@@H](O)C2` [Compound 549, N,N′-[(2S)-2-hydroxybicyclo[2.2.2]octane-1,4-diyl]bis[2-(3-fluorophenoxy)acetamide]], the EC50 is reported as 0.05 to 0.25 µM.
Molecule `O=C(COc1ccc(F)cc1)NC12CCC(NC(=O)COc3ccc(F)cc3)(CC1)[C@@H](O)C2` [Compound 550, N,N′-[(2S)-2-hydroxybicyclo[2.2.2]octane-1,4-diyl]bis[2-(4-fluorophenoxy)acetamide]] has an EC50 of under 0.01 µM.
`O=C(COc1ccc(Cl)c(F)c1)NC12CC(NCc3ccccc3)(C1)C2` [Compound 551, N-[3-(benzylamino)bicyclo[1.1.1]pentan-1-yl]-2-(4-chloro-3-fluorophenoxy)acetamide] was tested, and the EC50 was 0.5 to 2 µM.
Work on `O=C(COc1ccc(Cl)c(F)c1)NC12CCC(NC(=O)COc3ccc(Cl)c(F)c3)(CC1)[C@@H](C(=O)O)C2` [Compound 558, (2S)-1,4-bis[2-(4-chloro-3-fluorophenoxy)acetamido]bicyclo[2.2.2]octane-2-carboxylic Acid] yielded an EC50 of 0.5 to 2 µM.
For `O=C(COc1ccc(Cl)c(F)c1)NC12CCC(NC(=O)COc3ccc(Cl)c(F)c3)(CC1)[C@H](C(=O)O)C2` [Compound 559, (2R)-1,4-bis[2-(4-chloro-3-fluorophenoxy)acetamido]bicyclo[2.2.2]octane-2-carboxylic Acid], the EC50 was 0.5 to 2 µM.
For `O=C(COc1ccc(Cl)c(F)c1)NC12CCC(NC(=O)COc3ccc(Cl)c(F)c3)(CC1=O)C(=O)C2` [Compound 561, N,N′-(2,5-dioxobicyclo[2.2.2]octane-1,4-diyl)bis[2-(4-chloro-3-fluorophenoxy)acetamide]], the EC50 was under 0.01 µM.
